In ChEMBL document CHEMBL5154885, “Synthesis and biological evaluation of Haspin inhibitors: Kinase inhibitory potency and cellular activity” (Eur J Med Chem, 2022):
pEC50, pIC50: −log10 of the molar value.

Columns and labels:
[1] = target: T1, Serine/threonine-protein kinase haspin (Homo sapiens, UniProt Q8TF76)
T1 sequence (Q8TF76 whole entry): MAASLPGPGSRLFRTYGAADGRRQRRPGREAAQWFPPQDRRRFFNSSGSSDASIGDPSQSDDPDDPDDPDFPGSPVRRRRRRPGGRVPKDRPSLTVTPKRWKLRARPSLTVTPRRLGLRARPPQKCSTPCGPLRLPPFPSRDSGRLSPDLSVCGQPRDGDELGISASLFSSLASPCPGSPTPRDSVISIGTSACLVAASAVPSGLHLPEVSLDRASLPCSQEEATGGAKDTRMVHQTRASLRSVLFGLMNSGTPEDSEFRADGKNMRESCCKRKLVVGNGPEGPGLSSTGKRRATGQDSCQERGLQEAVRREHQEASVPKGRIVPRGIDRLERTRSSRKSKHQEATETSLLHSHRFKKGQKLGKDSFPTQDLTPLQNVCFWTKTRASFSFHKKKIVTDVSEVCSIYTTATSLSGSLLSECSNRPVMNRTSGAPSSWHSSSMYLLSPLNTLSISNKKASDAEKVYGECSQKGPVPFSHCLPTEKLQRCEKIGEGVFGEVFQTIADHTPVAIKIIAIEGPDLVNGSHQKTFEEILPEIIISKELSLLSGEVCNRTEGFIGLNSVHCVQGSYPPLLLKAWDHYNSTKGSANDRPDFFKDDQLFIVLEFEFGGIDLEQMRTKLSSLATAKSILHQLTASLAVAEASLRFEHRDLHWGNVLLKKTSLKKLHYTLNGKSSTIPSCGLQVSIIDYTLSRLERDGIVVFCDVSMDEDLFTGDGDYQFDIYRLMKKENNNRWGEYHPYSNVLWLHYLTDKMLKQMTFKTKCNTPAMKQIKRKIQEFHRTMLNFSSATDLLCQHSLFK

[2] = target: Dual specificity protein kinase CLK1 (Mus musculus, UniProt P22518); assay: Inhibition of recombinant mouse CLK1 expressed in bacteria using GRSRSRSRSRSR as substrate in presence of ATP measured after 30 mins by ADP-Glo assay
Dual specificity protein kinase CLK1, sequence (P22518 whole entry, the tested form may be a part): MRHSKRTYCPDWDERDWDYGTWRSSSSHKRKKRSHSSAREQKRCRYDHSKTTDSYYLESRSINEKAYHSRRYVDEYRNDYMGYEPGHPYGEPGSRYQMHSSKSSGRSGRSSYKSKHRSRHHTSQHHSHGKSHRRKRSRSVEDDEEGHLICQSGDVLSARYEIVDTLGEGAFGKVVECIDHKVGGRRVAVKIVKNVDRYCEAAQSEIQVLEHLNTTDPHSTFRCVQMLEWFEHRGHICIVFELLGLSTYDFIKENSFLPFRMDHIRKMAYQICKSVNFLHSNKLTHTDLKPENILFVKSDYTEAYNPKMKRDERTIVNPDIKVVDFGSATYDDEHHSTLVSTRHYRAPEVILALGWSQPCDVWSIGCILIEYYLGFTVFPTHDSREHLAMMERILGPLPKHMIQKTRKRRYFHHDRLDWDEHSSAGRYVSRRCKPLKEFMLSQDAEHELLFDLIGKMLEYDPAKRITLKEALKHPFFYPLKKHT

[3] = target: Dual specificity tyrosine-phosphorylation-regulated kinase 1A (Rattus norvegicus, UniProt Q63470); assay: Inhibition of recombinant rat DYRK1A (1 to 499 residues ) expressed in bacterial expression system using KKISGRLSPIMTEQ as substrate measured after 30 mins in presence of ATP by ADP-Glo assay
[4] = target: T2, Tyrosine-protein kinase JAK3 (Homo sapiens, UniProt P52333); assay: Inhibition of human recombinant JAK3 expressed in baculovirus sf9 insect cells using GGEEEEYFELVKKKK as substrate measured after 30 mins in presence of ATP by ADP-Glo assay
T2 sequence (P52333 whole entry): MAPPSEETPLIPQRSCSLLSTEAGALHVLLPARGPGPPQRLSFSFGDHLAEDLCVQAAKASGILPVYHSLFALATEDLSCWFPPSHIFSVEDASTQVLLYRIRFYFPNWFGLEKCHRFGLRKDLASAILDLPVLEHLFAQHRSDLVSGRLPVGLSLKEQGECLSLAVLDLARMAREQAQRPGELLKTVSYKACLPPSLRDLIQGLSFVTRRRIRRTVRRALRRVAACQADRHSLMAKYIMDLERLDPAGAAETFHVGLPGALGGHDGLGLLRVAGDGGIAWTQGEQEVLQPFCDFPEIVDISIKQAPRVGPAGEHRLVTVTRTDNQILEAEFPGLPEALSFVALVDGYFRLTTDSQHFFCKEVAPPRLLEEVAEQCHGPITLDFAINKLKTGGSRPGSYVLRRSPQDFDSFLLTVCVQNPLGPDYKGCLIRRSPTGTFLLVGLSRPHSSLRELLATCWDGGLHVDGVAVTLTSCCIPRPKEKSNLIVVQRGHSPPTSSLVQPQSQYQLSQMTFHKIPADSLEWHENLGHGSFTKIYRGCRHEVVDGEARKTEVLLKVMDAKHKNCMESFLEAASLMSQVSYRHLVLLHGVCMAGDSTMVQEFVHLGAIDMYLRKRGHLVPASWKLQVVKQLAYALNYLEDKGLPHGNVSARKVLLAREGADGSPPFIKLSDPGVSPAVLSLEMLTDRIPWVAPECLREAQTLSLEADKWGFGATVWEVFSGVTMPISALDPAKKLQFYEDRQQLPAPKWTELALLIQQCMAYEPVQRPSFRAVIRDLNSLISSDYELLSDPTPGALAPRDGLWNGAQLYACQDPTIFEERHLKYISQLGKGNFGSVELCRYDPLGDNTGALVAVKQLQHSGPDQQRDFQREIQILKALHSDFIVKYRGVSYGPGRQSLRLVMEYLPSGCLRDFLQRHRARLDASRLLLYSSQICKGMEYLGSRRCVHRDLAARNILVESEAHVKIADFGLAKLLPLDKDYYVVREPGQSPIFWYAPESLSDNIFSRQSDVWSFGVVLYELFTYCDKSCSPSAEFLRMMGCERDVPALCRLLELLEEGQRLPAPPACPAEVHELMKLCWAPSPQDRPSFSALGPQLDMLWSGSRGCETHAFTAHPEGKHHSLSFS

[5] = target: Serine/threonine-protein kinase pim-1 (Homo sapiens, UniProt P11309); assay: Inhibition of recombinant human PIM1 expressed in bacterial expression system using histone H1 as substrate measured after 30 mins in presence of ATP by ADP-Glo assay
[6] = target: Casein kinase I isoform epsilon (Homo sapiens, UniProt P49674); assay: Inhibition of human recombinant CK1 epsilon expressed in baculovirus in sf9 insect cells using RRKHAAIGSpAYSITA as substrate in presence of ATP measured after 30 mins by ADP-Glo assay
Casein kinase I isoform epsilon, sequence (P49674 whole entry, canonical isoform): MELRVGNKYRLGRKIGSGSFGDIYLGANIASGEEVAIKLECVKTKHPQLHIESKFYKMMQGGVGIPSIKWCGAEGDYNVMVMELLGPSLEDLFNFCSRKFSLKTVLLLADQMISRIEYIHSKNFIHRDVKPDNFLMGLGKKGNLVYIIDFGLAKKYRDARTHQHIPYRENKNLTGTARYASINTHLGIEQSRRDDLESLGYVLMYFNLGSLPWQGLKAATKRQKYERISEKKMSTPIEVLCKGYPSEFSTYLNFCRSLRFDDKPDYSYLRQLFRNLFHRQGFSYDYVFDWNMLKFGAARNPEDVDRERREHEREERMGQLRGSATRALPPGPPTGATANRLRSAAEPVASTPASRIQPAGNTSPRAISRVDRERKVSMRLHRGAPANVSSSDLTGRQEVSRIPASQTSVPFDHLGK

[7] = target: Glycogen synthase kinase-3 beta (Homo sapiens, UniProt P49841); assay: Inhibition of human recombinant GSK3beta expressed in baculovirus in Sf9 insect cells using YRRAAVPPSPSLSRHSSPHQSpEDEEE as substrate measured after 30 mins by ADP-Glo kinase assay
Glycogen synthase kinase-3 beta, sequence (P49841 whole entry): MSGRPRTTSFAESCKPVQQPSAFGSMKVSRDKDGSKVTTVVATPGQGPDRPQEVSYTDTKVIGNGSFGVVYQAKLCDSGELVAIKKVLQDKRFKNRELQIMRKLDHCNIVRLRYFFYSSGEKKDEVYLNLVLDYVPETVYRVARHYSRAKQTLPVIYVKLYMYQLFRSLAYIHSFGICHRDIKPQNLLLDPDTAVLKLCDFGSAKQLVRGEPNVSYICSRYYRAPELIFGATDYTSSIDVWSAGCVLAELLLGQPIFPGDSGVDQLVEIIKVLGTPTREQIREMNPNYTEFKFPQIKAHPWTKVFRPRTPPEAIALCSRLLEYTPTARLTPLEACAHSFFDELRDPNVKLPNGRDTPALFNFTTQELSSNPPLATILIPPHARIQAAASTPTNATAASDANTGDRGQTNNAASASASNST

[8] = target: Tyrosine-protein kinase ABL1 (Homo sapiens, UniProt P00519); assay: Inhibition of human recombinant ABL1 expressed in baculovirus sf9 insect cells using EAIYAAPFAKKK as substrate measured after 30 mins in presence of ATP by ADP-Glo assay
Tyrosine-protein kinase ABL1, sequence (P00519 whole entry): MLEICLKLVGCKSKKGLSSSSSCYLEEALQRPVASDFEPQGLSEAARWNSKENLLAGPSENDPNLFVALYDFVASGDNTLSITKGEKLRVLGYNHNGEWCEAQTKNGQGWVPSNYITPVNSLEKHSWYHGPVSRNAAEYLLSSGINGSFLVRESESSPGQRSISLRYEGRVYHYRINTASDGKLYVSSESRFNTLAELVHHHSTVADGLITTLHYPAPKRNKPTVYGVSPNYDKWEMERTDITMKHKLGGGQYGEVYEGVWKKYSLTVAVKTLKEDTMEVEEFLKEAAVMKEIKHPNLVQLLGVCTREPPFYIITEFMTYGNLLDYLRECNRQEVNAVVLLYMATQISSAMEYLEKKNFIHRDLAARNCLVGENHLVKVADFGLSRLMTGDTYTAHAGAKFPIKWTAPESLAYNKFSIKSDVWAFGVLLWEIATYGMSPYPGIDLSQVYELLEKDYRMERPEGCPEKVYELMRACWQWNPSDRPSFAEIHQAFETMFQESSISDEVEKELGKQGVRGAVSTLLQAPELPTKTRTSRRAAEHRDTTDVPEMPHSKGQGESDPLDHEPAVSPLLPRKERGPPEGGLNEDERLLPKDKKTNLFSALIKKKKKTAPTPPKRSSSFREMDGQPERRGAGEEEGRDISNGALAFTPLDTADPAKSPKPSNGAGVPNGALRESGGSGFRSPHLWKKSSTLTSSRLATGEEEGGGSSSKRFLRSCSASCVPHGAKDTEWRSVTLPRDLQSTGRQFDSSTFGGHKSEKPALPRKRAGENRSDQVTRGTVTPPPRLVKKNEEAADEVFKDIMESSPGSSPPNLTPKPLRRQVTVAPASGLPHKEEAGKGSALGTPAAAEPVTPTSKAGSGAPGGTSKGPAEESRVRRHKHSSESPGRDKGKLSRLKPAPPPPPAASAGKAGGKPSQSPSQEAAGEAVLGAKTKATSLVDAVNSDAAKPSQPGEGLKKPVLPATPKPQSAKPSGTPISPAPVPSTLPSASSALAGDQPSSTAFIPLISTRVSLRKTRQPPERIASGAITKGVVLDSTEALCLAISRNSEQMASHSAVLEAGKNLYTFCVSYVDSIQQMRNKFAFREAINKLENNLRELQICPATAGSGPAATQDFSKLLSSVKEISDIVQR

[9] = target: Cyclin-dependent kinase 5/CDK5 activator 1 (Homo sapiens, UniProt Q00535); assay: Inhibition of human recombinant CDK5/p25 expressed in bacterial expression system using histone H1 as substrate in presence of ATP at measured after 30 mins by ADP-Glo assay
Cyclin-dependent kinase 5/CDK5 activator 1, sequence (Q00535 whole entry): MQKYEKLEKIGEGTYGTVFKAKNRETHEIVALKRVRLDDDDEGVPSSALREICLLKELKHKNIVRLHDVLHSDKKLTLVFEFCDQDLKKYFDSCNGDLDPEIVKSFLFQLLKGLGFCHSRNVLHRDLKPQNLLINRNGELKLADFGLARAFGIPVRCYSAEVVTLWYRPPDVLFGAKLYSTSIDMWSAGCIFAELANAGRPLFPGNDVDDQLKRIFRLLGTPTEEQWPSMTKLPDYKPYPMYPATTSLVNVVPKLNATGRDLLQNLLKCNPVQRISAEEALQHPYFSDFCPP
Cyclin-dependent kinase 5/CDK5 activator 1, sequence (Q15078 whole entry, further chain): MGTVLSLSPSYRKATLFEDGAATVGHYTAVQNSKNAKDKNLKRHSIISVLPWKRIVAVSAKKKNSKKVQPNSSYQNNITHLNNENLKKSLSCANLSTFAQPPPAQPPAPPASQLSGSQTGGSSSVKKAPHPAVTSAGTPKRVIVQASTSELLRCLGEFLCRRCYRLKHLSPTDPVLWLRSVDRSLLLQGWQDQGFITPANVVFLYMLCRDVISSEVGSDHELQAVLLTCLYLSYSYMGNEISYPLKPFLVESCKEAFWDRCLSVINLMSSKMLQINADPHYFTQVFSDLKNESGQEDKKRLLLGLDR

[10] = target: Death-associated protein kinase 3 (Homo sapiens, UniProt O43293); assay: Inhibition of human DAPK3 in presence of ATP by kinomescan assay
[11] = Cytotoxicity against human TERT-RPE1 cells assessed as reduction in cell viability measured after 48 hrs by MTS assay; assay type: toxicity, cell-based
[12] = target: Serine/threonine-protein kinase PLK1 (Homo sapiens, UniProt P53350); assay: Inhibition of human PLK1 in presence of ATP by kinomescan assay
Serine/threonine-protein kinase PLK1, sequence (P53350 whole entry): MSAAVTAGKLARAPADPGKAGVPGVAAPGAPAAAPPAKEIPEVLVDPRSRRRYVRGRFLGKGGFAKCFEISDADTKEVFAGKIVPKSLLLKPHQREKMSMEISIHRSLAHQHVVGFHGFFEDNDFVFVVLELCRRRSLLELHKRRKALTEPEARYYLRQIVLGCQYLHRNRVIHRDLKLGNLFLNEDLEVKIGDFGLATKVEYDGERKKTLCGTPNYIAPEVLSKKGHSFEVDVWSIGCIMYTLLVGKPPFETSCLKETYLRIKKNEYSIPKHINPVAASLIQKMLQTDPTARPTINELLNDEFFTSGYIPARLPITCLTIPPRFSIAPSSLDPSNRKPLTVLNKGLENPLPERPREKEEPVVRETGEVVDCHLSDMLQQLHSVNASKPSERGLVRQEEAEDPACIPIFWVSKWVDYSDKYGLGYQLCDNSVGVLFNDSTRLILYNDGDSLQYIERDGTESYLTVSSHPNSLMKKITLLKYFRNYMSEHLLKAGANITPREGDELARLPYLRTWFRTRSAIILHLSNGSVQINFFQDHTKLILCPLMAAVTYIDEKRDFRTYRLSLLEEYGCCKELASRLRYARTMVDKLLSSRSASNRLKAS

[13] = target: Serine/threonine-protein kinase PLK3 (Homo sapiens, UniProt Q9H4B4); assay: Inhibition of human recombinant PLK3 in presence of ATP by kinomescan assay
Serine/threonine-protein kinase PLK3, sequence (Q9H4B4 whole entry): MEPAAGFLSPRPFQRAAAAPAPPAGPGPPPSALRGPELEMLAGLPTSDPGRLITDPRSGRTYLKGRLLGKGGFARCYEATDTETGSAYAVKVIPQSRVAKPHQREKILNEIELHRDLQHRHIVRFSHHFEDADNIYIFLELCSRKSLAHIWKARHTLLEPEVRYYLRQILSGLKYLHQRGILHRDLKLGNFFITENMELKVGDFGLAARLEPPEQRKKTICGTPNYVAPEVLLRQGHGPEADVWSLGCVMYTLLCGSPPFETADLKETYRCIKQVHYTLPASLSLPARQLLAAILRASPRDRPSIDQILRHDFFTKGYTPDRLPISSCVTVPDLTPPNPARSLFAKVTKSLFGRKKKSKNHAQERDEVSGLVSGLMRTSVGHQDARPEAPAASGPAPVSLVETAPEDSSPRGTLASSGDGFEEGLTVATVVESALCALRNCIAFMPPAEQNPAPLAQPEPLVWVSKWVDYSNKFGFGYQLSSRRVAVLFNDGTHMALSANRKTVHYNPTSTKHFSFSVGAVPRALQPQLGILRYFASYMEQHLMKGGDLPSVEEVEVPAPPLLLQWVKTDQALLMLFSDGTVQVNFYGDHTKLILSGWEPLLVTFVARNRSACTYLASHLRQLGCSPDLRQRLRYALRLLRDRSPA

[14] = target: Serine/threonine-protein kinase PLK2 (Homo sapiens, UniProt Q9NYY3); assay: Inhibition of human PLK2 in presence of ATP by kinomescan assay
Serine/threonine-protein kinase PLK2, sequence (Q9NYY3 whole entry): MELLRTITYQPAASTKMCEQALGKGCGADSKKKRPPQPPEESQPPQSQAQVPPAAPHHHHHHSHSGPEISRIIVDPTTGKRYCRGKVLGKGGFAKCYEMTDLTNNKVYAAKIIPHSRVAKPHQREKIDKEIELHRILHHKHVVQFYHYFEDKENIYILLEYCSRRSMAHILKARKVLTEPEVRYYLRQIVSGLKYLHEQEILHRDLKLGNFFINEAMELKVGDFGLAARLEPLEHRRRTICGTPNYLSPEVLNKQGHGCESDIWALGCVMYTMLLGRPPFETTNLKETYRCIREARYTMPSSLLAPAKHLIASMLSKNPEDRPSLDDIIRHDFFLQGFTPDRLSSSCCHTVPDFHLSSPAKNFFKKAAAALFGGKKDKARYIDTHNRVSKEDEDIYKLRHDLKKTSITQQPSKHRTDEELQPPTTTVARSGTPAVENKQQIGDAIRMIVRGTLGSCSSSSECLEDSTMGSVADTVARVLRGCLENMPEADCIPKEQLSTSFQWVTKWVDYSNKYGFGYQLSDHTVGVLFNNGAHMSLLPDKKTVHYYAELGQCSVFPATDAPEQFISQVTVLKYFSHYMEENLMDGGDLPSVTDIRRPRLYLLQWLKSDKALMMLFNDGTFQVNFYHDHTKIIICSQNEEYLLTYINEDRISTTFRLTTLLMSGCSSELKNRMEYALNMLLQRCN

HCT-116 = assay: Cytotoxicity against human HCT-116 cells assessed as reduction in cell viability measured after 48 hrs by MTS assay; conditions: HCT-116, 48 h
[15] = Inhibition of human recombinant CDK9 expressed in baculovirus insect Sf9 cells using YSPTSPSYSPTSPSYSPTSPSKKKK as substrate measured after 30 mins in presence of ATP by ADP-Glo assay
HBL-100 = assay: Cytotoxicity against human HBL-100 cells assessed as reduction in cell viability measured after 48 hrs by MTS assay; conditions: HBL-100, 48 h
SH-SY5Y = assay: Cytotoxicity against human SH-SY5Y cells assessed as reduction in cell viability measured after 48 hrs by MTS assay
U2OS = assay: Cytotoxicity against human U2OS cells assessed as reduction in cell viability measured after 48 hrs by MTS assay

## CC(C)Sc1ncc2cc3cnccc3c(N)c2n1
[1]
  pIC50: 7.25
[2]
  pIC50: 7.14
[3]
  pIC50: 6.23

## CCCNc1ccc2ncc(-c3ccc4[nH]ncc4c3)n2n1
[4]
  pIC50: 6.92
[5]
  pIC50: 7.54
[6]
  pIC50: 7.00
[2]
  pIC50: 8.10
[7]
  pIC50: 7.28
[3]
  pIC50: 7.89
[8]
  pIC50: 6.79
[9]
  pIC50: 7.39

## CCCCCSc1ncc2cc3cnccc3c(N)c2n1
[1]
  pIC50: 6.36

## CCOC(=O)CCSc1ncc2cc3cnccc3c([N+](=O)[O-])c2n1
[1]
  pIC50: 6.05

## CCC(C)Sc1ncc2cc3cnccc3c([N+](=O)[O-])c2n1 (centres undefined)
[1]
  pIC50: 6.32

## COc1ncc2cc3cnccc3c([N+](=O)[O-])c2n1
[10]
  pIC50: 6.24
[11]
  EC50 at 48 h: 3.2 µM
[12]
  pIC50: 6.53
[13]
  pIC50: 6.93
[14]
  pIC50: 6.90

## CSc1ncc2cc3cnccc3c([N+](=O)[O-])c2n1
[1]
  pIC50: 6.92
HCT-116
  pEC50: 5.96
[15]
  pIC50: 6.39
[11]
  EC50 at 48 h: 0.8 µM
HBL-100
  pEC50: 5.89
SH-SY5Y
  pEC50: 5.92

## Nc1ccc2cc3cnccc3c([N+](=O)[O-])c2n1
[1]
  pIC50: 8.52
HCT-116
  pEC50: 6.70
[15]
  pIC50: 7.62
[11]
  EC50 at 48 h: 0.4 µM
[2]
  pIC50: 7.70
[7]
  pIC50: 6.38
U2OS
  pEC50: 6.52
[3]
  pIC50: 7.06
HBL-100
  pEC50: 6.10
SH-SY5Y
  pEC50: 6.70

## CCCCSc1ncc2cc3cnccc3c(N)c2n1
[1]
  pIC50: 7.16
[2]
  pIC50: 7.04
[3]
  pIC50: 6.88

## CSc1ncc2cc3cnccc3c(N)c2n1
[1]
  pIC50: 7.92
[15]
  pIC50: 6.72
[2]
  pIC50: 7.43
[3]
  pIC50: 7.33

## CCC(C)Sc1ncc2cc3cnccc3c(N)c2n1 (centres undefined)
[1]
  pIC50: 6.69

## CCCSc1ncc2cc3cnccc3c(N)c2n1
[1]
  pIC50: 7.19
[2]
  pIC50: 7.05
[3]
  pIC50: 6.83

## CCSc1ncc2cc3cnccc3c([N+](=O)[O-])c2n1
[1]
  pIC50: 7.04
[2]
  pIC50: 6.83
[3]
  pIC50: 6.29

## CCCSc1ncc2cc3cnccc3c([N+](=O)[O-])c2n1
[1]
  pIC50: 6.77

## CCCCSc1ncc2cc3cnccc3c([N+](=O)[O-])c2n1
[1]
  pIC50: 5.98

## CCSc1ncc2cc3cnccc3c(N)c2n1
[1]
  pIC50: 6.91

## CC(C)Sc1ncc2cc3cnccc3c([N+](=O)[O-])c2n1
[1]
  pIC50: 6.94

## COc1ncc2cc3cnccc3c(N)c2n1
[1]
  pIC50: 6.80
